Assay results reported in ChEMBL document CHEMBL5518207, “Structure Guided Discovery of Novel Pan Metallo-β-Lactamase Inhibitors with Improved Gram-Negative Bacterial Cell Penetration” (J Med Chem, 2024).

Columns and labels:
[1] = Inhibition of GST tagged NDM-1 (unknown origin) expressed in Escherichia coli BL21 Star (DE3) competent cells using CCF2-FA as substrate incubated for 2 hrs by fluorescence based analysis
[2] = Inhibition of GST tagged IMP-1 (unknown origin) expressed in Escherichia coli BL21 Star (DE3) competent cells using CCF2-FA as substrate incubated for 2 hrs by fluorescence based analysis
[3] = Inhibition of GST tagged VIM-1 (unknown origin) expressed in Escherichia coli BL21 Star (DE3) competent cells using CCF2-FA as substrate incubated for 2 hrs by fluorescence based analysis
Escherichia coli = experiment: Potentiation of imipenem induced antibacterial activity against Escherichia coli CLB30005 harbouring NDM-1 incubated for 18 to 22 hrs in presence of imipenem by spectrophotometer based analysis; format: functional; conditions: time 18-22 hrs
Serratia marcescens = experiment: Potentiation of imipenem induced antibacterial activity against Serratia marcescens CL5741 harbouring IMP-1 incubated for 18 to 22 hrs imipenem by spectrophotometer based analysis; format: functional; conditions: time 18-22 hrs
Klebsiella pneumoniae = experiment: Potentiation of imipenem induced antibacterial activity against Klebsiella pneumoniae IHMA599644 harbouring VIM-1 incubated for 18 to 22 hrs imipenem by spectrophotometer based analysis; format: functional; conditions: time 18-22 hrs
Pseudomonas aeruginosa [4] = experiment: Potentiation of imipenem induced antibacterial activity against isogenic efflux wild type Pseudomonas aeruginosa MB9798 harbouring IMP incubated for 18 to 22 hrs imipenem and beta lactamase inhibitor by spectrophotometer based analysis; format: functional; conditions: time 18-22 hrs
Pseudomonas aeruginosa [5] = experiment: Potentiation of imipenem induced antibacterial activity against isogenic efflux deleted mutant Pseudomonas aeruginosa MB9799 harbouring IMP incubated for 18 to 22 hrs imipenem and beta lactamase inhibitor by spectrophotometer based analysis; format: functional; conditions: time 18-22 hrs
Pseudomonas aeruginosa [6] = experiment: Efflux ratio of MITC95 for potentiation of imipenem induced antibacterial activity against isogenic efflux wild type Pseudomonas aeruginosa MB9798 harbouring IMP to MITC95 for potentiation of imipenem induced antibacterial activity against isogenic efflux deleted mutant Pseudomonas aeruginosa MB9799 harbouring IMP; format: functional
[7] = Inhibition of GST tagged VIM-2 (unknown origin) expressed in Escherichia coli BL21 Star (DE3) competent cells using CCF2-FA as substrate incubated for 2 hrs by fluorescence based analysis

Cc1ccc(-c2cccc(S(N)(=O)=O)c2-c2nnn[nH]2)cc1
IC50 [1]: 3.7 nM
IC50 [2]: 64 nM
IC50 [3]: 57 nM
MITC95 (Escherichia coli): 1.5 µM
MITC95 (Serratia marcescens): 14 µM
MITC95 (Klebsiella pneumoniae): 127 µM

Nc1ccc(-c2ccc(C(F)(F)F)c(S(N)(=O)=O)c2-c2nn[nH]n2)cn1
IC50 [1]: 2.7 nM
IC50 [2]: 6.9 nM
IC50 [3]: 1.3 nM
MITC95 (Escherichia coli): 0.2 µM
MITC95 (Serratia marcescens): 0.4 µM
MITC95 (Klebsiella pneumoniae): 4.8 µM
MITC95 (Pseudomonas aeruginosa [4]): 200 µM
MITC95 (Pseudomonas aeruginosa [5]): 1.56 µM
Ratio (Pseudomonas aeruginosa [6]): 128
IC50 [7]: 3.1 nM

N=C(N)NCc1ccc(-c2ccc(C(F)(F)F)c(S(N)(=O)=O)c2-c2nn[nH]n2)cc1
IC50 [1]: 3.9 nM
IC50 [2]: 3.4 nM
IC50 [3]: 0.4 nM
MITC95 (Escherichia coli): 0.3 µM
MITC95 (Serratia marcescens): 0.06 µM
MITC95 (Klebsiella pneumoniae): 0.8 µM
MITC95 (Pseudomonas aeruginosa [4]): 35.4 µM
MITC95 (Pseudomonas aeruginosa [5]): 0.39 µM
Ratio (Pseudomonas aeruginosa [6]): 90

Nc1ccc2cccc(-c3ccc(C(F)(F)F)c(S(N)(=O)=O)c3-c3nn[nH]n3)c2n1
IC50 [1]: 0.1 nM
IC50 [2]: 0.8 nM
IC50 [3]: 0.4 nM
MITC95 (Escherichia coli): 1.6 µM
MITC95 (Serratia marcescens): 3.1 µM
MITC95 (Klebsiella pneumoniae): 3.1 µM
MITC95 (Pseudomonas aeruginosa [4]): 12.5 µM
MITC95 (Pseudomonas aeruginosa [5]): 0.78 µM
Ratio (Pseudomonas aeruginosa [6]): 16

Nc1nc2c(-c3ccc(CC4CCNCC4)c(S(N)(=O)=O)c3-c3nn[nH]n3)cccc2s1
IC50 [1]: 0.7 nM
IC50 [2]: 19 nM
IC50 [3]: 2.2 nM
MITC95 (Escherichia coli): 0.8 µM
MITC95 (Serratia marcescens): 3.1 µM
MITC95 (Klebsiella pneumoniae): 1.6 µM
MITC95 (Pseudomonas aeruginosa [4]): 18 µM
MITC95 (Pseudomonas aeruginosa [5]): 1.6 µM
Ratio (Pseudomonas aeruginosa [6]): 11
IC50 [7]: 2.1 nM

NS(=O)(=O)c1c(Br)ccc(-c2ccc(C3CCNCC3)cc2)c1-c1nn[nH]n1
IC50 [1]: 11 nM
IC50 [2]: 10 nM
IC50 [3]: 3 nM
MITC95 (Escherichia coli): 0.4 µM
MITC95 (Serratia marcescens): 0.2 µM
MITC95 (Klebsiella pneumoniae): 1.6 µM

Nc1nc2c(-c3ccc(C(F)(F)F)c(S(N)(=O)=O)c3-c3nn[nH]n3)cccc2s1
IC50 [1]: 0.2 nM
IC50 [2]: 1 nM
IC50 [3]: 0.4 nM
MITC95 (Escherichia coli): 3.1 µM
MITC95 (Serratia marcescens): 1.6 µM
MITC95 (Klebsiella pneumoniae): 3.1 µM
MITC95 (Pseudomonas aeruginosa [4]): 6.3 µM
MITC95 (Pseudomonas aeruginosa [5]): 0.78 µM
Ratio (Pseudomonas aeruginosa [6]): 8
IC50 [7]: 0.1 nM

Cc1ccc(-c2ccc(C3CCNCC3)cc2)c(-c2nn[nH]n2)c1S(N)(=O)=O
IC50 [1]: 31 nM
IC50 [2]: 72 nM
IC50 [3]: 28 nM
MITC95 (Escherichia coli): 3 µM
MITC95 (Serratia marcescens): 6 µM
MITC95 (Klebsiella pneumoniae): 25 µM

NC1CCC(N2CCC(c3ccc(-c4ccc(C(F)(F)F)c(S(N)(=O)=O)c4-c4nn[nH]n4)cc3)CC2)CC1 (stereo not given)
IC50 [1]: 6.4 nM
IC50 [2]: 1.8 nM
IC50 [3]: 11 nM
MITC95 (Escherichia coli): 1.6 µM
MITC95 (Serratia marcescens): 3.1 µM
MITC95 (Klebsiella pneumoniae): 50 µM
MITC95 (Pseudomonas aeruginosa [4]): 3.1 µM
MITC95 (Pseudomonas aeruginosa [5]): 0.78 µM
Ratio (Pseudomonas aeruginosa [6]): 4

NC1(c2ccc(-c3ccc(C(F)(F)F)c(S(N)(=O)=O)c3-c3nn[nH]n3)cc2)CCNCC1
IC50 [1]: 9.3 nM
IC50 [2]: 12.8 nM
IC50 [3]: 3 nM
MITC95 (Escherichia coli): 0.4 µM
MITC95 (Serratia marcescens): 0.3 µM
MITC95 (Klebsiella pneumoniae): 0.9 µM
MITC95 (Pseudomonas aeruginosa [4]): 25 µM
MITC95 (Pseudomonas aeruginosa [5]): 0.39 µM
Ratio (Pseudomonas aeruginosa [6]): 64

Nc1ccc2ccc(-c3ccc(C(F)(F)F)c(S(N)(=O)=O)c3-c3nn[nH]n3)cc2n1
IC50 [1]: 1.1 nM
IC50 [2]: 1.5 nM
IC50 [3]: 0.2 nM
MITC95 (Escherichia coli): 0.8 µM
MITC95 (Serratia marcescens): 3.1 µM
MITC95 (Klebsiella pneumoniae): 3.1 µM
MITC95 (Pseudomonas aeruginosa [4]): 100 µM
MITC95 (Pseudomonas aeruginosa [5]): 0.39 µM
Ratio (Pseudomonas aeruginosa [6]): 256

N=C(N)N[C@H]1CC[C@H](c2ccc(C(F)(F)F)c(S(N)(=O)=O)c2-c2nn[nH]n2)CC1
IC50 [1]: 17.5 nM
IC50 [2]: 25.5 nM
IC50 [3]: 0.7 nM
MITC95 (Escherichia coli): 1.2 µM
MITC95 (Serratia marcescens): 0.4 µM
MITC95 (Klebsiella pneumoniae): 1.2 µM
MITC95 (Pseudomonas aeruginosa [4]): 200 µM
MITC95 (Pseudomonas aeruginosa [5]): 0.78 µM
Ratio (Pseudomonas aeruginosa [6]): 256

Nc1nc2cccc(-c3ccc(C(F)(F)F)c(S(N)(=O)=O)c3-c3nn[nH]n3)c2s1
IC50 [1]: 0.04 nM
IC50 [2]: 0.8 nM
IC50 [3]: 0.1 nM
MITC95 (Escherichia coli): 1.6 µM
MITC95 (Serratia marcescens): 6.3 µM
MITC95 (Klebsiella pneumoniae): 6.3 µM
MITC95 (Pseudomonas aeruginosa [4]): 50 µM
MITC95 (Pseudomonas aeruginosa [5]): 1.56 µM
Ratio (Pseudomonas aeruginosa [6]): 32

NS(=O)(=O)c1cccc(-c2ccc(C3CCNCC3)cc2)c1-c1nn[nH]n1
IC50 [1]: 5 nM
IC50 [2]: 34 nM
IC50 [3]: 19 nM
MITC95 (Escherichia coli): 3 µM
MITC95 (Serratia marcescens): 9 µM
MITC95 (Klebsiella pneumoniae): 38 µM
MITC95 (Pseudomonas aeruginosa [4]): 200 µM
MITC95 (Pseudomonas aeruginosa [5]): 1.56 µM
Ratio (Pseudomonas aeruginosa [6]): 128

NCCCc1ccc(-c2cccc3sc(N)nc23)c(-c2nn[nH]n2)c1S(N)(=O)=O
IC50 [1]: 0.8 nM
IC50 [2]: 12 nM
IC50 [3]: 1.8 nM
MITC95 (Escherichia coli): 0.8 µM
MITC95 (Serratia marcescens): 1.6 µM
MITC95 (Klebsiella pneumoniae): 1.6 µM
MITC95 (Pseudomonas aeruginosa [4]): 12.5 µM
MITC95 (Pseudomonas aeruginosa [5]): 0.8 µM
Ratio (Pseudomonas aeruginosa [6]): 16

NS(=O)(=O)c1c(C(F)(F)F)ccc(-c2ccc(NS(=O)(=O)C3CC3)cc2)c1-c1nn[nH]n1
IC50 [1]: 0.3 nM
IC50 [2]: 0.2 nM
IC50 [3]: 0.08 nM
MITC95 (Escherichia coli): 6.3 µM
MITC95 (Serratia marcescens): 3.1 µM
MITC95 (Klebsiella pneumoniae): 12.5 µM
MITC95 (Pseudomonas aeruginosa [4]): 50 µM
MITC95 (Pseudomonas aeruginosa [5]): 0.78 µM
Ratio (Pseudomonas aeruginosa [6]): 64

NS(=O)(=O)c1c(Cl)ccc(-c2ccc(C3CCNCC3)cc2)c1-c1nn[nH]n1
IC50 [1]: 6 nM
IC50 [2]: 9 nM
IC50 [3]: 3 nM
MITC95 (Escherichia coli): 0.8 µM
MITC95 (Serratia marcescens): 0.4 µM
MITC95 (Klebsiella pneumoniae): 1.6 µM
MITC95 (Pseudomonas aeruginosa [4]): 50 µM
MITC95 (Pseudomonas aeruginosa [5]): 0.39 µM
Ratio (Pseudomonas aeruginosa [6]): 128

Nc1nc2ccc(-c3ccc(C(F)(F)F)c(S(N)(=O)=O)c3-c3nn[nH]n3)cc2s1
IC50 [1]: 0.8 nM
IC50 [2]: 2.5 nM
IC50 [3]: 0.3 nM
MITC95 (Escherichia coli): 3.1 µM
MITC95 (Serratia marcescens): 3.1 µM
MITC95 (Klebsiella pneumoniae): 12.5 µM
MITC95 (Pseudomonas aeruginosa [4]): 200 µM
MITC95 (Pseudomonas aeruginosa [5]): 1.56 µM
Ratio (Pseudomonas aeruginosa [6]): 128

NS(=O)(=O)c1c(C(F)(F)F)ccc(-c2ccc(C3CCNCC3)cc2)c1-c1nn[nH]n1
IC50 [1]: 0.9 nM
IC50 [2]: 1.2 nM
IC50 [3]: 0.3 nM
MITC95 (Escherichia coli): 0.7 µM
MITC95 (Serratia marcescens): 0.2 µM
MITC95 (Klebsiella pneumoniae): 1.9 µM
MITC95 (Pseudomonas aeruginosa [4]): 50 µM
MITC95 (Pseudomonas aeruginosa [5]): 0.78 µM
Ratio (Pseudomonas aeruginosa [6]): 64
